Measurements reported in publication PMC12040169 (PLOS Biology, 2025).

Assay: in vitro
Conditions: human, hela cells

With `CC1CN(C(=O)COc2ccccc2OC(=O)N(C)C)CC(C)O1` (stereo not shown) [CBK057627] the viability at 28.5 h, 10 µM was 121%.

Same assay, conditions: human, hela cells, % viability

Compared with `O=C(CN1CCOCC1)N1CCN(C(=O)c2ccc(C(F)(F)F)cc2)C1` [CBK051555C], `O=C(O)C1CCC1C(=O)N1CCN(c2ccc(C(F)(F)F)cn2)CC1` (stereo not shown) [CBK057147] is higher in viability at 28.5 h, 10 µM: 92.1% for the first, 93.7% for the second.

First: C[C@@H]1CN(C)CCN1c1nccnc1OCCOc1cccnc1OCCCCCN(C)C [CBK051566]
Second: COc1ccc(C)cc1S(=O)(=O)n1ccc2c(OC3CCCN(C)C3)nccc21 (stereo not shown) [CBK051582C]
The viability at 28.5 h, 10 µM of the first is higher: 103% for the first, 85.3% for the second.

Going from `COc1ccc([C@@]23CC[C@@H](NC(=O)Nc4ncc(Cl)s4)C[C@@H]2N(C)CC3)cc1OC` [CBK051620T] to `COc1ccc([C@@]23CC[C@@H](NC(=O)Nc4ccc(F)c(F)c4)C[C@@H]2N(C(=O)CN)CC3)cc1OC` [CBK051679], the viability at 28.5 h, 10 µM rises from 96.1% to 111%.

Compared with `COc1ccc(C)cc1S(=O)(=O)Nc1ccc(O[C@@H]2CCNC2)c2ccccc12` [CBK051622C], `COc1ccc([C@@]23CC[C@@H](NS(=O)(=O)c4cccc5cccnc45)C[C@@H]2N(C)CC3)cc1OC` [CBK056849T] is lower in viability at 28.5 h, 10 µM: 104% for the first, 80.8% for the second.

Going from `CS(=O)(=O)NCC1(c2ccccc2)CCN(S(=O)(=O)c2ccc(N3CCOCC3)nc2)CC1` [CBK051634] to `O=S(=O)(c1cccs1)N1CCC2(CC1)OCCO2` [CBK057295], the viability at 28.5 h, 10 µM rises from 90% to 95.1%.

Compared with `c1cc2[nH]ccc2c(N2CCNCC2)n1` [CBK051673C], `Cc1ccc2[nH]c(SCC(=O)NC3CCCC3)nc2c1` [CBK057983] is lower in viability at 28.5 h, 10 µM: 90.7% for the first, 90% for the second.

Going from `CC1CN(CC(=O)NC(C)(C)c2ccccc2)CC(C)N1` (stereo not shown) [CBK051693] to `CC(C)(C)OC(=O)N1CCC(CNCc2c[nH]c(-c3ccccc3)n2)CC1` [CBK056718], the viability at 28.5 h, 10 µM rises from 83.8% to 94.3%.

First: Cc1nc(NCCCn2ccnc2)c2ccccc2n1 [CBK051987]
Second: Cn1c(SCC(=O)c2ccccc2)nc2ccccc2c1=O [CBK055260]
The viability at 28.5 h, 10 µM of the first is higher: 95.1% for the first, 87.6% for the second.

First: CCOC(=O)CSc1nc2ccccc2c(=O)n1Cc1ccccc1 [CBK054124]
Second: O=C(CSc1ncnc2c1oc1ccccc12)Nc1ccccc1 [CBK057994]
The viability at 28.5 h, 10 µM of the first is higher: 95.4% for the first, 93.4% for the second.

Compared with `COc1ccc([C@@]23CCCN(C(=O)Nc4ccc(C)c(F)c4)C[C@@H]2N(C)CC3)cc1OC` [CBK056680T], `COc1ccccc1N1CCN(C(=O)c2snnc2C)CC1` [CBK057792] is lower in viability at 28.5 h, 10 µM: 110% for the first, 92.8% for the second.

Going from `Cc1c(F)cccc1CNC1CCC(NC(=O)OC(C)(C)C)CC1` (stereo not shown) [CBK056691] to `Cc1c(F)cccc1CNCC1CCN(C(=O)OC(C)(C)C)CC1` [CBK056717], the viability at 28.5 h, 10 µM rises from 85% to 85.7%.

First: CC(C)(C)OC(=O)NCCNCc1ccccc1Br [CBK056693]
Second: CC(C)(C)OC(=O)NCCNCc1ccccc1C(F)(F)F [CBK056695]
The viability at 28.5 h, 10 µM of the first is higher: 92.1% for the first, 80% for the second.

Going from `COc1ccc(F)c(CNCCNC(=O)OC(C)(C)C)c1` [CBK056699] to `Cc1c(F)cccc1CNCCNC(=O)OC(C)(C)C` [CBK056700], the viability at 28.5 h, 10 µM rises from 93.9% to 95.7%.

First: CC(C)(C)OC(=O)NCc1ccc(CNCc2ccccc2Br)cc1 [CBK056701]
Second: Cc1c(F)cccc1CNCc1ccc(CNC(=O)OC(C)(C)C)cc1 [CBK056708]
The viability at 28.5 h, 10 µM of the first is lower: 96.6% for the first, 103% for the second.

Going from `CC(C)(C)OC(=O)NCc1ccc(CNCc2ccc(-c3ccccc3)cc2)cc1` [CBK056706] to `O=C(CSc1ccccc1)NCc1ccncc1` [CBK058023], the viability at 28.5 h, 10 µM falls from 96.8% to 96.7%.

Compared with `Cc1cccc(CNCC2CCN(C(=O)OC(C)(C)C)CC2)n1` [CBK056713], `CC(C)(C)OC(=O)N1CCC(CNCc2cc(F)cc(F)c2)CC1` [CBK056715] is higher in viability at 28.5 h, 10 µM: 104% for the first, 119% for the second.

First: O=C(OCCC1SC(NC2CC3C=CC2C3)=NC1=O)c1cc(C(F)(F)F)cc(C(F)(F)F)c1 (stereo not shown) [CBK056857T]
Second: O=C(O)CCC(=O)Nc1cc(C(F)(F)F)ccc1N1CCCC1 [CBK057434]
The viability at 28.5 h, 10 µM of the first is higher: 100% for the first, 94.2% for the second.

Going from `O=C(Nc1cnccn1)c1ccc(Cl)cc1Cl` [CBK056922] to `CC1=C(C(=O)Nc2ccc(Cl)cc2Cl)SCCO1` [CBK057784], the viability at 28.5 h, 10 µM rises from 85.5% to 96.5%.

Compared with `CC(C)(C)OC(=O)NCCNC(=O)Nc1ccccc1C(F)(F)F` [CBK056940], `COC(=O)C(CCSC)NC(=O)c1ccc(C(F)(F)F)cc1` (stereo not shown) [CBK057452] is lower in viability at 28.5 h, 10 µM: 98.6% for the first, 91.9% for the second.

First: CCCCOc1ccc(-c2ccc(C#N)cc2)cc1 [CBK056958]
Second: COc1ccc(OCCC(=O)O)cc1 [CBK057706]
The viability at 28.5 h, 10 µM of the first is higher: 93% for the first, 86.2% for the second.

Going from `COc1ccc2c(c1)CCCN2C(=O)c1sc2ccccc2c1Cl` [CBK056960] to `COc1ccc(NC(=O)c2sc(Cl)nc2C)cc1` [CBK057902], the viability at 28.5 h, 10 µM rises from 90.2% to 97.1%.

Going from `O=C(NCCc1ccncc1)c1cccs1` [CBK056969] to `O=C(NCCOc1ccc(F)cc1)c1cccs1` [CBK057930], the viability at 28.5 h, 10 µM rises from 107% to 116%.

Compared with `CN(C)C(=O)C(C)(C)Oc1cc(C(F)(F)F)n(C)n1` [CBK056980], `CN(C)S(=O)(=O)c1cccnc1OCC(O)CNC(C)(C)C` (stereo not shown) [CBK058059] is lower in viability at 28.5 h, 10 µM: 94.2% for the first, 84.5% for the second.

Going from `O=S(=O)(c1ccccc1)N1CCCC1c1cccs1` (stereo not shown) [CBK057002] to `OC(CNCc1cccs1)c1ccccc1` (stereo not shown) [CBK057092], the viability at 28.5 h, 10 µM falls from 110% to 90.8%.

First: CSc1ccccc1NC(=O)c1cc(Cl)sc1Cl [CBK057008]
Second: O=C(Nc1cccc(Cl)c1Cl)c1cccs1 [CBK057672]
The viability at 28.5 h, 10 µM of the first is lower: 99.2% for the first, 104% for the second.

Compared with `CC(C)(C)SCCNS(=O)(=O)c1ccc(Cl)c(Cl)c1` [CBK057015], `O=S(=O)(NC1CCCCC1)c1ccc(Cl)cc1I` [CBK057574] is lower in viability at 28.5 h, 10 µM: 92.1% for the first, 80.8% for the second.

First: COC(=O)c1sccc1NC(=O)/C=C/c1ccccc1 [CBK057041]
Second: O=C(/C=C/c1ccsc1)Nc1ccc(F)cc1 [CBK057139]
The viability at 28.5 h, 10 µM of the first is higher: 115% for the first, 93.9% for the second.

First: N#Cc1c(F)cccc1NCc1cccnc1 [CBK057053]
Second: Cn1nc(NC(=O)c2ccco2)c2c(F)cccc21 [CBK057774]
The viability at 28.5 h, 10 µM of the first is higher: 116% for the first, 93.7% for the second.

Compared with `CCOC(=O)N1CCN(S(=O)(=O)c2coc(C)c2C(=O)OC)CC1` [CBK057079], `COC(=O)c1c(C)oc(C)c1S(=O)(=O)Nc1ccc(C(C)C)cc1` [CBK057115] is lower in viability at 28.5 h, 10 µM: 94.7% for the first, 88% for the second.

First: COC(=O)c1cc(OC)c(OC)cc1NC(=O)C1CCC1C(=O)O (stereo not shown) [CBK057084]
Second: CCCc1cc(C(=O)OC)c(NC(=O)C2C3CCC(C3)C2C(=O)O)s1 (stereo not shown) [CBK057885]
The viability at 28.5 h, 10 µM of the first is lower: 82.5% for the first, 98.5% for the second.

Compared with `Cc1ccc(OCC(O)CN2CCC(C(N)=O)CC2)cc1C` (stereo not shown) [CBK057100], `CC(CN1CCCCC1)OC(=O)COc1ccc(F)cc1` (stereo not shown) [CBK058066C] is lower in viability at 28.5 h, 10 µM: 105% for the first, 93.6% for the second.

First: Cc1cc(C(=O)N(CCC#N)Cc2cccs2)no1 [CBK057316]
Second: Cc1cc(NC(=O)c2cc(C)oc2C)no1 [CBK058081]
The viability at 28.5 h, 10 µM of the first is higher: 112% for the first, 88.7% for the second.

Going from `O=C(O)CCC(=O)N1CCN(c2ncccn2)CC1` [CBK057422] to `O=C(O)C1CNC(=O)N1C(=O)OCc1ccccc1` (stereo not shown) [CBK057462], the viability at 28.5 h, 10 µM falls from 114% to 98.8%.

First: CCCCNCCn1cnc2c(N)ncnc21 [CBK057447]
Second: Cc1nn(C)cc1C(=O)NC1CCCC1 [CBK057851]
The viability at 28.5 h, 10 µM of the first is higher: 116% for the first, 112% for the second.

First: Cc1ccc(NC2C=CS(=O)(=O)C2)cc1 (stereo not shown) [CBK057487]
Second: O=C(Nc1ccc2c(c1)CS(=O)(=O)C2)c1cccs1 [CBK057563]
The viability at 28.5 h, 10 µM of the first is lower: 89.5% for the first, 113% for the second.

Going from `O=C(Nc1ccc(F)c(Cl)c1)c1cccnc1Sc1cccs1` [CBK057512] to `O=C(CSc1ccccn1)Nc1cccc(Cl)c1Cl` [CBK057679], the viability at 28.5 h, 10 µM rises from 89% to 91.8%.

Going from `O=C(NCCSCc1ccco1)C1CCC1` [CBK057516] to `O=C(Nc1nnc(C2CCCCC2)s1)c1ccccc1I` [CBK057918], the viability at 28.5 h, 10 µM falls from 119% to 114%.

First: O=S(=O)(Nc1ccccc1)c1ccccc1I [CBK057566]
Second: O=C(COc1ccccc1)Nc1nccs1 [CBK058018]
The viability at 28.5 h, 10 µM of the first is lower: 92.5% for the first, 93.4% for the second.

Going from `COCC(C)NC(=O)c1cc2c(C)cc(C)cc2[nH]1` (stereo not shown) [CBK057591] to `COC(=O)c1c(C)n[nH]c1COc1ccccc1` [CBK057823], the viability at 28.5 h, 10 µM rises from 91.8% to 92.1%.

Compared with `O=C(O)CCNc1ccc(Cl)cc1` [CBK057631], `Cc1cc(Cl)ccc1NC(=O)COCC(=O)O` [CBK057723] is higher in viability at 28.5 h, 10 µM: 75.5% for the first, 104% for the second.

Compared with `CSc1ccc(CNC(=O)c2ccc(Cl)cc2)s1` [CBK057705], `O=C(CSC1=NCCS1)Nc1ccc(Cl)cn1` [CBK057917] is lower in viability at 28.5 h, 10 µM: 89.4% for the first, 84% for the second.

Compared with `O=S(=O)(c1c(Cl)cc(C(F)(F)F)cc1Cl)N1CCOCC1` [CBK057736], `CN1CCN(S(=O)(=O)c2ccc(-c3cc(C(F)(F)F)on3)s2)CC1` [CBK057780] is higher in viability at 28.5 h, 10 µM: 88.8% for the first, 96% for the second.

Going from `COC(=O)CNC(=O)c1ccncc1Br` [CBK057760] to `CC(=O)c1sc(NC(=O)c2ccc(Br)o2)nc1C` [CBK057948], the viability at 28.5 h, 10 µM falls from 101% to 91.6%.

Going from `Cc1noc(C)c1C(=O)N1CCOCC1` [CBK057765] to `COC(=O)Nc1ccc(S(=O)(=O)N2CCCCC2C(=O)O)cc1` (stereo not shown) [CBK058086], the viability at 28.5 h, 10 µM rises from 80.5% to 106%.

Compared with `Cc1nc(COc2ccccc2Cl)sc1-c1ccnc(N)n1` [CBK057769], `Cc1nc(COc2ccccc2)nc(O)c1Cl` [CBK057810] is higher in viability at 28.5 h, 10 µM: 91.3% for the first, 95.2% for the second.

Compared with `CCCc1ccc(C(C)NC(=O)C2CC2C)cc1` (stereo not shown) [CBK057847], `CCC(C)c1ccc(NC(=O)CSc2nnnn2C)cc1` (stereo not shown) [CBK058085] is higher in viability at 28.5 h, 10 µM: 82.4% for the first, 122% for the second.

Compared with `Cn1nnnc1SCC(=O)Nc1cc(F)ccc1F` [CBK057872], `CCc1nnc(NC(=O)CCc2ccccc2)s1` [CBK057943] is higher in viability at 28.5 h, 10 µM: 79.9% for the first, 86.1% for the second.

Compared with `Nc1nc(SCC(=O)NCCCO)nc2sc3c(c12)CCCC3` [CBK057958], `CN(C)CCCOc1ccc2c(c1)Sc1ccccc1CC2=O` [CBK058002] is higher in viability at 28.5 h, 10 µM: 87.8% for the first, 95.4% for the second.
